Measurements as given in patent publication US20230218604A1, “PPARy AGONIST FOR TREATMENT OF PROGRESSIVE [sequence] PALSY” (Coherus Biosciences, Inc., priority 2022, published 2023).
Values joined by “and” are separate entries in the source; they are usually repeats but may differ in a detail not shown here. Equal entries are not always repeated. “Also recorded” adds a separate entry of the source.

Legend:
adiponectin [1] = test: 24-week randomized, double-blind, placebo-controlled study in type 2 diabetes: serum adiponectin levels; format: in vivo, human; settings: for Mean Adiponectin, Week 24 / Mean Change in adiponectin from baseline (Week 0) to Week 24 / Mean Adiponectin, Week 0: (SD); for Mean Change in adiponectin from baseline (Week 0) to Week 24: LOCF; for Mean Adiponectin, Week 0: baseline, type 2 diabetes subjects
Method: A randomized, double-blind, placebo-controlled, 24-week study was conducted in which adiponectin levels were measured. […] 367 subjects with type 2 diabetes (TD2)—a disease in which patient adiponectin levels are reduced—were randomly assigned to receive either 0.5, 1, 2 or 3 milligrams (“mg”) of INT131 besylate, 45 mg of pioglitazone or placebo daily for 24 weeks. To measure adiponectin levels blood was drawn at Weeks 0, 2, 6, 12 and 24. At baseline (Week 0) mean adiponectin levels were 1.94 micrograms per milliliter (“µg/mL”). The mean adiponectin levels at baseline and Week 24, and the mean change in adiponectin levels from baseline (Week 0) to Week 24 are disclosed in Table 1, below. The standard deviation for samples tested in each group is listed in (parenthesis). Mean baseline adiponectin values were similar for the treatment groups.

HbA1c [2] = test: 24-week randomized, double-blind, placebo-controlled study in type 2 diabetes: HbA1c levels; format: in vivo, human; settings: 24 weeks
adiponectin [3] = test: 14-day study of serum adiponectin levels in healthy subjects; format: in vivo, human
Method: A study was conducted to determine the effect of INT131 on serum adiponectin levels. Thirty healthy subjects were randomly selected to receive either placebo, 0.1 mg INT131, 1 mg INT131 or 4 mg INT131 daily for 14 days. To measure adiponectin levels blood was drawn at Days 1, 4, 8 and 14.

[4] = RRMS study: monthly contrast MRI, cumulative CE lesions and new/enlarged T2 lesions; format: in vivo, human; settings: for Reduction of CE lesion burden vs. placebo: 6 months; for Cumulative CE lesions over 6 months: complete case analysis
Method: (§1) 227 treatment-naive adult subjects (mean age 31 [range 18-50]; 65% female) were randomized into one of three arms: oral CHS-131 at 3 mg (n=76); oral CHS-131 at 1 mg (n=76); placebo (n=75), at 21 sites in Russia. 97% completed Part 1. Inclusion criteria: Relapsing Remitting Multiple Sclerosis (RRMS) for ≤3 years, ≥1 gadolinium-positive lesion within 1-year of enrollment, and an EDSS ≤ 6 at screening. The patients underwent monthly MRI examinations with contrast to identify new inflammatory lesions. All MRIs were read blinded at the Buffalo Neuroimaging Center (Buffalo, NY). In addition to CE lesions the images were scored for cumulative new/enlarged T2 lesions, and serial cortical and whole brain volumetric analysis.

[5] = RRMS study: serial cortical and whole brain volumetric MRI analysis; format: in vivo, human; settings: 3 mg daily, 6 months
Method: as §1

HbA1c [6] = settings: DePaoli et al. Diabetes Care 2014; cited from earlier work
[7] = subjects taking INT131 vs those taking pioglitazone; DePaoli et al. 2014; cited from earlier work
[8] = in vivo; cited from earlier work

Structure (SMILES): O=S(=O)(Nc1cc(Cl)c(Oc2cnc3ccccc3c2)c(Cl)c1)c1ccc(Cl)cc1Cl [INT131]
- Mean Adiponectin, Week 24 (adiponectin [1]; 0.5 mg INT131 daily for 24 weeks): 2.28 (1.540) µg/mL
- Mean Change in adiponectin from baseline (Week 0) to Week 24 (adiponectin [1]; 0.5 mg INT131 daily): 0.56 µg/mL and 0.56 (0.906) µg/mL
- Mean Adiponectin, Week 0 (adiponectin [1]; 0.5 mg INT131 group): 1.73 (1.190) µg/mL
- Adiponectin levels, treatment comparison with pioglitazone 45 mg (adiponectin [1]; 0.5 mg, 1 mg and 3 mg doses of INT131, p≤0.0408): statistically significant
- Mean Adiponectin, Week 24 (adiponectin [1]; 1 mg INT131 daily for 24 weeks): 3.15 (2.533) µg/mL
- Mean Change in adiponectin from baseline (Week 0) to Week 24 (adiponectin [1]; 1 mg INT131 daily): 1.28 µg/mL and 1.28 (1.882) µg/mL
- Mean Adiponectin, Week 0 (adiponectin [1]; 1 mg INT131 group): 1.87 (1.217) µg/mL
- Adiponectin levels, treatment comparison with placebo (adiponectin [1]; 1 mg, 2 mg and 3 mg doses of INT131, p≤0.0109): statistically significant increase
- Mean Adiponectin, Week 24 (adiponectin [1]; 2 mg INT131 daily for 24 weeks): 5.14 (3.650) µg/mL
- Mean Change in adiponectin from baseline (Week 0) to Week 24 (adiponectin [1]; 2 mg INT131 daily): 3.27 µg/mL and 3.27 (3.002) µg/mL
- Mean Adiponectin, Week 0 (adiponectin [1]; 2 mg INT131 group): 1.87 (1.098) µg/mL
- Mean Adiponectin, Week 24 (adiponectin [1]; 3 mg INT131 daily for 24 weeks): 5.83 (4.826) µg/mL
- Mean Change in adiponectin from baseline (Week 0) to Week 24 (adiponectin [1]; 3 mg INT131 daily): 3.83 µg/mL and 3.83 (4.313) µg/mL
- Mean Adiponectin, Week 0 (adiponectin [1]; 3 mg INT131 group): 2.00 (1.215) µg/mL
- Reduction of HbA1c levels as compared to placebo (HbA1c [2]; 1, 2 and 3 mg doses of INT131 daily): statistically significant reduction
- Reduction of HbA1c levels compared with 45 mg of pioglitazone (HbA1c [2]; 2 and 3 mg doses of INT131 daily): at least as well as 45 mg of pioglitazone
- Change in serum adiponectin levels, Day 1 to Day 14 and over placebo (adiponectin [3]; 0.1 mg INT131 daily for 14 days): no significant change
- Change in serum adiponectin levels over placebo and from Day 1 to Day 14 (adiponectin [3]; 1 mg or 4 mg INT131 daily for 14 days): significant change
- Cumulative CE lesions over 6 months, LSMean ([4]; 1 mg oral): 5.15
- Reduction of CE lesion burden vs. placebo ([4]; 1 mg oral, p=ns): 21%
- Cumulative CE lesions over 6 months ([4]; 1 mg oral): 7.6
- Reduction of new/enlarged T2 lesions compared to placebo ([4]; 1 mg, p=ns): 14%
- Cumulative CE lesions over 6 months, LSMean ([4]; 3 mg daily oral): 3.10
- Reduction of CE lesion burden vs. placebo ([4]; 3 mg daily oral, p=0.003): 52%
- Cumulative CE lesions over 6 months ([4]; 3 mg daily oral): 4.2 lesions
- Reduction of new/enlarged T2 lesions compared to placebo ([4]; 3 mg, p=0.0767): 30%
- Less cortical volume loss compared to placebo [5]: 34.2%
- Less whole brain volume loss compared to placebo [5]: 50%
- Efficacy in reducing HbA1c levels versus 45 mg of pioglitazone (HbA1c [6]): equally efficacious
- Side effects versus pioglitazone [7]: less edema, weight gain, and hemodilution
- Crossing of the blood brain barrier [8]: more readily than other PPARγ agonists; also recorded: readily crosses the blood brain barrier

Structure (SMILES): CCc1ccc(CCOc2ccc(CC3SC(=O)NC3=O)cc2)nc1 (centres unmarked) [pioglitazone, reference compound]
- Mean Adiponectin, Week 24 (adiponectin [1]; 45 mg pioglitazone daily for 24 weeks): 5.28 (3.222) µg/mL
- Mean Change in adiponectin from baseline (Week 0) to Week 24 (adiponectin [1]; 45 mg pioglitazone daily): 2.96 µg/mL
- Mean Change in adiponectin from baseline (Week 0) to Week 24 (adiponectin [1]; 45 mg pioglitazone daily, listed as Pioglitazone): 2.96 (2.618) µg/mL
- Mean Adiponectin, Week 0 (adiponectin [1]; 45 mg pioglitazone group): 2.32 (2.185) µg/mL
